Experimental data from patent US10327423B2, “Antimicrobial compounds and compositions, and uses thereof” (Akeso Biomedical, Inc., priority 2014, dated 2019).

Key:
[1] = system: Pseudomonas aeruginosa (PAO-1 Clinical); experiment: Growth curve of antibiotic resistant clinical isolate with kanamycin and FeQ; type: cell-based; details: kanamycin and FeQ added to growth media
Method: The impact on the growth curve of an antibiotic resistant clinical isolate of Pseudomonas aeruginosa (PAO-1 Clinical) grown in the presence of kanamycin and FeQ versus the clinical isolate grown in the presence of (i) FeQ, (ii) kanamycin or (iii) without addition of FeQ or kanamycin (control) was assessed.

H. pylori CCUG 17875 = experiment: H. pylori attachment to human gastric tissue sections (FITC-labelled bacteria); type: cell-based, Helicobacter pylori; details: Fe-QA 1 mM and 0.2 mM; 1 hour at room temperature
Method: The ability of H. pylori CCUG 17875 to bind to samples of human gastric tissue in the presence of Lewis b antigen, Le^b, and two concentrations of Fe-QA (1 mM and 0.2 mM) was measured. Binding was quantified by fluorescence using H. pylori that had been labeled with fluorescein using FITC (fluorescein isothiocyanate), and human gastric tissue that was embedded in […]. The bacteria were suspended in blocking buffer (1% BSA in PBS) and applied to re-hydrated histo-sections of human gastric tissue. Binding was assessed microscopically, and quantified as the average number of bacteria bound to the tissue.

[2] = system: Enteropathogenic E. coli (EPEC) E2348/69; experiment: Crystal violet assay of attachment to plastic wells; type: cell-based, Escherichia coli; details: FeQ 100 μM; 48 hours at 37° C.
Method: Enteropathogenic E. coli (EPEC) E2348/69 were grown in wells for 48 hours at 37° C. in the presence of FeQ (100 μM), and in the absence of FeQ (as control). After 48 hours, the wells were washed in order to remove suspended cells. Crystal violet was then added to each well. The wells were then washed to remove excess dye. A mixture of acetone/ethanol was then added to the wells to re-suspend any cells attached to the plastic surface of the wells, and dissolve any dye present. The presence of dye in each well was then quantified by measuring the O.D. at 570 nm.
Enteropathogenic E. coli (EPEC) E2348/69 were grown in wells for 48 hours at 37° C. in the presence of FeDOPA (10-250 μM), and in the absence of FeDOPA (as control). After 48 hours, the wells were washed in order to remove suspended cells. Crystal violet was then added to each well. The wells were then washed to remove excess dye. A mixture of acetone/ethanol was then added to the wells to re-suspend any cells attached to the plastic surface of the wells, and dissolve any dye present. The presence of dye in each well was then quantified by measuring the O.D. at 570 nm.

Q: Which results are given for `O=C1[O][Fe]23([O]C(=O)[C@]4(C[C@@H](O)[C@H](O)[C@H](O)C4)[O]2)([O]C(=O)[C@]2(C[C@@H](O)[C@H](O)[C@H](O)C2)[O]3)[O][C@@]12C[C@@H](O)[C@H](O)[C@H](O)C2` [FeQ, a complex of quinic acid with Fe III]?
A: growth rate versus kanamycin or FeQ alone [1]: large reduction in the growth rate; growth rate versus kanamycin or FeQ alone ([1]; listed as Fe-QA): retarded; binding of H. pylori to human gastric tissue (H. pylori CCUG 17875): significantly reduced; attachment of EPEC cells to plastic well surface and biofilm formation (crystal violet, O.D. 570 nm) [2]: little or no attachment of bacterial cells to the surface and no biofilm formation
